Results on 21 molecules are retold here after ChEMBL document CHEMBL5505967, “Design and synthesis of 4-amino-2',4'-dihydroxyindanone derivatives as potent inhibitors of tyrosinase and melanin biosynthesis in human melanoma cells” (Eur J Med Chem, 2024).

Assay [1] concerns the target T1, Tyrosinase (Homo sapiens, UniProt P14679).
T1 sequence (P14679 whole entry): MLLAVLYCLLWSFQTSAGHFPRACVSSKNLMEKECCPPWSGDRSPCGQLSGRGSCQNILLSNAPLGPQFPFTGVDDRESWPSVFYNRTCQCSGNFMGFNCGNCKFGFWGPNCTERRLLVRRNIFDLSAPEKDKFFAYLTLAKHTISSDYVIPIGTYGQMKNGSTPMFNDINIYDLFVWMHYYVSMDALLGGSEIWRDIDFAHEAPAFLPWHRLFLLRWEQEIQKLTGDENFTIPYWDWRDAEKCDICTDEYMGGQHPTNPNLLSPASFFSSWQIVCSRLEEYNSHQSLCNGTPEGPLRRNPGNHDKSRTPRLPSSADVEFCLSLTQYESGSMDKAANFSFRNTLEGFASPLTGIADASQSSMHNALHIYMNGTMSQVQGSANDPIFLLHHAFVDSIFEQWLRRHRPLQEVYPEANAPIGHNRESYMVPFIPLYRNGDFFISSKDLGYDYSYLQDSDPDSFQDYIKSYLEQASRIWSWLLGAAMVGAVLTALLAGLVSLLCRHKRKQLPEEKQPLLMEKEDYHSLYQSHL
Description: Inhibition of tyrosinase in human MNT-1 cells using L-DOPA as substrate preincubated for 10 mins followed by substrate addition measured after 180 mins by absorbance based spectramax microplate reader assay

The subject of assay [2] is MNT-1. Kind of assay: cells. The note with it: Homo sapiens, MNT-1, 96 h.
Description: Inhibition of melanogenesis in human MNT-1 cells incubated for 4 days
For assay [3], the system named is MNT-1. As to the kind of experiment: cells. The conditions noted are these: Homo sapiens, MNT-1, 336 h.
Description: Inhibition of melanogenesis in human MNT-1 cells incubated for 14 days
The test system of assay [4] is MNT-1. Kind of assay: cells. The note with it: Homo sapiens, MNT-1, 96 h. The source holds these as a separate data set.
Description: Cytotoxicity against human MNT-1 cells incubated for 4 days by resazurin assay
Assay [5] relates to MNT-1. As to the kind of experiment: cells. The note with it: Homo sapiens, MNT-1, 336 h. This is another data set of the same source.
Description: Cytotoxicity against human MNT-1 cells incubated for 14 days by resazurin assay
A further assay deals with Mushroom tyrosinase (Agaricus bisporus, UniProt O42713+Q00024+C7FF04+C7FF05). Kind of assay: Inhibition of mushroom tyrosinase using L-DOPA as substrate preincubated for 10 mins followed by substrate addition measured after 10 mins by absorbance based spectramax microplate reader assay. The class given is protein assay.
Assay [6] deals with T1, Tyrosinase. As to the kind of experiment: Inhibition of His-tagged human tyrosinase expressed in HEK293 cells using L-DOPA as substrate by microplate reader analysis.

Molecules are shown by their SMILES.

Regarding `CC(C)C(=O)Nc1nc(-c2ccc(O)cc2O)cs1`, the values for the IC50 at Tyrosinase [1], in the assay on MNT-1 [2] and in the assay with MNT-1 [3] were 0.17 µM, 10 µM and 0.28 µM, respectively. The CC50 (usually the concentration that lowers cell viability or growth by half) in the assay on MNT-1 [4] is above 100 µM; in the assay with MNT-1 [5], 36 µM.
For `O=C1/C(=C/c2ccc(O)cc2O)Cc2c(O)cccc21`, on Mushroom tyrosinase, the IC50 (commonly the midpoint of a concentration-inhibition curve) is 0.09 µM.
On to `CC(C)[C@@H](N)C(=O)Nc1cccc2c1C/C(=C\c1ccc(O)cc1O)C2=O`, for which the IC50 at Mushroom tyrosinase is 0.46 µM.
At Mushroom tyrosinase, `O=C1/C(=C/c2ccc(O)cc2O)Cc2c(Br)cccc21` yielded an IC50 of 0.086 µM. This IC50 is about 5.3-fold lower than that of the molecule before.
As to `O=C1/C(=C/c2ccc(O)cc2O)Cc2c1cccc2[N+](=O)[O-]`, the 50% inhibitory concentration (IC50) at Mushroom tyrosinase was 0.16 µM; against Tyrosinase [1] it was above 100 µM.
With `CCCC(=O)Nc1cccc2c1C/C(=C\c1ccc(O)cc1O)C2=O`, the IC50 at Mushroom tyrosinase came out at 0.006 µM; with MNT-1 [2] it was 24 µM; in the assay on MNT-1 [3], 2 µM. In addition, the figures for the CC50 with MNT-1 [4] and in the assay on MNT-1 [5] were above 100 µM and 77 µM, respectively.
On Mushroom tyrosinase, `O=C(Nc1cccc2c1C/C(=C\c1ccc(O)cc1O)C2=O)c1ccccc1` came in with an IC50 of 0.1 µM.
As for `Nc1cccc2c1C/C(=C\c1ccc(O)cc1O)C2=O`, the values for the IC50 against Mushroom tyrosinase, in the assay with MNT-1 [2] and with MNT-1 [3] were 0.027 µM, 3.8 µM and 0.53 µM, respectively. The CC50 with MNT-1 [4] is above 100 µM; with MNT-1 [5], 66 µM.
As for `C[C@H](N)C(=O)Nc1cccc2c1C/C(=C\c1ccc(O)cc1O)C2=O`, the IC50 amounted to 0.6 µM on Mushroom tyrosinase, 19 µM with MNT-1 [2] and 4.6 µM in the assay on MNT-1 [3]. The figures for the CC50 with MNT-1 [4] and in the assay on MNT-1 [5] were above 100 µM and 94 µM, respectively.
Take `CNc1cccc2c1C/C(=C\c1ccc(O)cc1O)C2=O`: the IC50 against Mushroom tyrosinase amounted to 0.014 µM; in the assay on MNT-1 [2], 3.2 µM; in the assay with MNT-1 [3], 0.77 µM. Also, the values for the CC50 in the assay on MNT-1 [4] and with MNT-1 [5] were 78 µM and 29 µM, respectively.
On to `N#Cc1cccc2c1C/C(=C\c1ccc(O)cc1O)C2=O`, for which, on Mushroom tyrosinase, the 50% inhibitory concentration (IC50) was found to be 0.26 µM.
As for `COc1cccc2c1C/C(=C\c1ccc(O)cc1O)C2=O`, on Mushroom tyrosinase, the IC50 is 0.16 µM. This IC50 is about 1.6-fold lower than that of the molecule before.
Turning to `O=C1/C(=C/c2ccc(O)cc2O)Cc2c(F)cccc21`, the IC50 against Mushroom tyrosinase came out at 0.15 µM.
For `CCC(=O)Nc1cccc2c1C/C(=C\c1ccc(O)cc1O)C2=O`, the IC50 was determined as 0.014 µM against Mushroom tyrosinase, 8 µM in the assay with MNT-1 [2] and 3.1 µM in the assay with MNT-1 [3]. The CC50 in the assay on MNT-1 [4] is above 100 µM; with MNT-1 [5], 65 µM.
`O=C1/C(=C/c2ccc(O)cc2O)Cc2c1cccc2C(F)(F)F`: the IC50 against Mushroom tyrosinase is 0.18 µM; against Tyrosinase [1] it was above 100 µM.
As for `CC(=O)Nc1cccc2c1C/C(=C\c1ccc(O)cc1O)C2=O`, the values for the IC50 against Mushroom tyrosinase, in the assay with MNT-1 [2] and with MNT-1 [3] were 0.009 µM, 19 µM and 3.3 µM, respectively. For the same molecule, the CC50 is above 100 µM in the assay on MNT-1 [4] and 67 µM with MNT-1 [5].
As for `Cc1cccc2c1C/C(=C\c1ccc(O)cc1O)C2=O`, the figures for the IC50 against Mushroom tyrosinase, with MNT-1 [2] and in the assay on MNT-1 [3] were 0.019 µM, 21 µM and 4.1 µM, respectively. Besides, the CC50 is above 100 µM in the assay on MNT-1 [4] and 61 µM in the assay on MNT-1 [5].
Turning to `NCC(=O)Nc1cccc2c1C/C(=C\c1ccc(O)cc1O)C2=O`, the IC50 on Mushroom tyrosinase is 0.39 µM; with MNT-1 [2] it was 29 µM; in the assay with MNT-1 [3] it was 12 µM. For the same molecule, the CC50 in the assay on MNT-1 [4] and with MNT-1 [5] was above 100 µM in each case.
For the molecule `CC(C)C(=O)Nc1cccc2c1C/C(=C\c1ccc(O)cc1O)C2=O`, the IC50 was found to be 0.06 µM against Mushroom tyrosinase, 7 µM in the assay with MNT-1 [2] and 2.1 µM with MNT-1 [3]. Moreover, the CC50 in the assay on MNT-1 [4] was above 100 µM; in the assay on MNT-1 [5], 62 µM.
Molecule `CN(C)c1cccc2c1C/C(=C\c1ccc(O)cc1O)C2=O` returned an IC50 at Mushroom tyrosinase of 0.083 µM.
Consider `Oc1cccc(O)c1` [RESORCINOL], for which the IC50 against Tyrosinase [6] was above 3000 µM.
